Laboratory results published in the NIST ThermoML archive (doi:10.1016/j.jct.2017.12.023).

Assay: xn = mol fraction of the nth substance listed
Conditions: 100 kPa, Liquid; for viscosity: Concentric cylinders viscometry; for mass density: Vibrating tube method

CCOS(=O)(=O)[O-].CCn1cc[n+](C)c1 [1-ethyl-3-methylimidazolium ethyl sulfate] + CN1CCCC1=O
Conditions | mass density [kg/m3] | viscosity [mPa·s]
288.15 K, x1 = 0.1009 | 1079.2 | 3.992
288.15 K, x1 = 0.2012 | 1111.89 | 7.313
288.15 K, x1 = 0.3021 | 1138.72 | 12.42
288.15 K, x1 = 0.4012 | 1160.76 | 19.71
288.15 K, x1 = 0.4973 | 1178.79 | 29.14
288.15 K, x1 = 0.596 | 1194.97 | 42.09
288.15 K, x1 = 0.6998 | 1209.56 | 59.32
288.15 K, x1 = 0.7961 | 1221.74 | 79
288.15 K, x1 = 0.8821 | 1231.55 | 104.25
288.15 K, x1 = 1 | 1243.07 | 155.55
293.15 K, x1 = 0.1009 | 1074.95 | 3.554
293.15 K, x1 = 0.2012 | 1107.79 | 6.338
293.15 K, x1 = 0.3021 | 1134.75 | 10.51
293.15 K, x1 = 0.4012 | 1156.89 | 16.36
293.15 K, x1 = 0.4973 | 1175.02 | 23.79
293.15 K, x1 = 0.596 | 1191.28 | 33.7
293.15 K, x1 = 0.6998 | 1205.95 | 46.73
293.15 K, x1 = 0.7961 | 1218.2 | 61.57
293.15 K, x1 = 0.8821 | 1228.07 | 80.25
293.15 K, x1 = 1 | 1239.66 | 117.88
298.15 K, x1 = 0.1009 | 1070.72 | 3.21
298.15 K, x1 = 0.2012 | 1103.71 | 5.637
298.15 K, x1 = 0.3021 | 1130.79 | 9.181
298.15 K, x1 = 0.4012 | 1153.04 | 14.03
298.15 K, x1 = 0.4973 | 1171.26 | 20.08
298.15 K, x1 = 0.596 | 1187.6 | 27.95
298.15 K, x1 = 0.6998 | 1202.35 | 38.08
298.15 K, x1 = 0.7961 | 1214.66 | 49.4
298.15 K, x1 = 0.8821 | 1224.59 | 63.39
298.15 K, x1 = 1 | 1236.27 | 91.26
303.15 K, x1 = 0.1009 | 1066.49 | 2.908
303.15 K, x1 = 0.2012 | 1099.65 | 5.01
303.15 K, x1 = 0.3021 | 1126.85 | 8.026
303.15 K, x1 = 0.4012 | 1149.22 | 12.06
303.15 K, x1 = 0.4973 | 1167.52 | 17
303.15 K, x1 = 0.596 | 1183.95 | 23.38
303.15 K, x1 = 0.6998 | 1198.77 | 31.46
303.15 K, x1 = 0.7961 | 1211.15 | 40.33
303.15 K, x1 = 0.8821 | 1221.13 | 51.1
303.15 K, x1 = 1 | 1232.87 | 72.1
308.15 K, x1 = 0.1009 | 1062.28 | 2.649
308.15 K, x1 = 0.2012 | 1095.59 | 4.488
308.15 K, x1 = 0.3021 | 1122.93 | 7.071
308.15 K, x1 = 0.4012 | 1145.41 | 10.47
308.15 K, x1 = 0.4973 | 1163.8 | 14.56
308.15 K, x1 = 0.596 | 1180.31 | 19.81
308.15 K, x1 = 0.6998 | 1195.21 | 26.22
308.15 K, x1 = 0.7961 | 1207.65 | 33.3
308.15 K, x1 = 0.8821 | 1217.69 | 41.58
308.15 K, x1 = 1 | 1229.49 | 57.98
313.15 K, x1 = 0.1009 | 1058.09 | 2.432
313.15 K, x1 = 0.2012 | 1091.55 | 4.013
313.15 K, x1 = 0.3021 | 1119.03 | 6.231
313.15 K, x1 = 0.4012 | 1141.61 | 9.114
313.15 K, x1 = 0.4973 | 1160.1 | 12.5
313.15 K, x1 = 0.596 | 1176.69 | 16.76
313.15 K, x1 = 0.6998 | 1191.67 | 22.04
313.15 K, x1 = 0.7961 | 1204.17 | 27.72
313.15 K, x1 = 0.8821 | 1214.27 | 34.42
313.15 K, x1 = 1 | 1226.13 | 47.26
318.15 K, x1 = 0.1009 | 1053.91 | 2.231
318.15 K, x1 = 0.2012 | 1087.53 | 3.668
318.15 K, x1 = 0.3021 | 1115.14 | 5.615
318.15 K, x1 = 0.4012 | 1137.84 | 8.113
318.15 K, x1 = 0.4973 | 1156.42 | 11
318.15 K, x1 = 0.596 | 1173.09 | 14.57
318.15 K, x1 = 0.6998 | 1188.15 | 18.93
318.15 K, x1 = 0.7961 | 1200.71 | 23.58
318.15 K, x1 = 0.8821 | 1210.86 | 29
318.15 K, x1 = 1 | 1222.79 | 39.25
323.15 K, x1 = 0.1009 | 1049.74 | 2.061
323.15 K, x1 = 0.2012 | 1083.52 | 3.344
323.15 K, x1 = 0.3021 | 1111.25 | 5.053
323.15 K, x1 = 0.4012 | 1134.08 | 7.216
323.15 K, x1 = 0.4973 | 1152.75 | 9.678
323.15 K, x1 = 0.596 | 1169.51 | 12.7
323.15 K, x1 = 0.6998 | 1184.64 | 16.34
323.15 K, x1 = 0.7961 | 1197.26 | 20.2
323.15 K, x1 = 0.8821 | 1207.47 | 24.63
323.15 K, x1 = 1 | 1219.46 | 32.94
328.15 K, x1 = 0.1009 | 1045.59 | 1.912
328.15 K, x1 = 0.2012 | 1079.52 | 3.064
328.15 K, x1 = 0.3021 | 1107.38 | 4.575
328.15 K, x1 = 0.4012 | 1130.34 | 6.458
328.15 K, x1 = 0.4973 | 1149.1 | 8.585
328.15 K, x1 = 0.596 | 1165.95 | 11.16
328.15 K, x1 = 0.6998 | 1181.15 | 14.23
328.15 K, x1 = 0.7961 | 1193.83 | 17.46
328.15 K, x1 = 0.8821 | 1204.1 | 21.14
328.15 K, x1 = 1 | 1216.16 | 27.96
333.15 K, x1 = 0.1009 | 1041.42 | 1.782
333.15 K, x1 = 0.2012 | 1075.53 | 2.804
333.15 K, x1 = 0.3021 | 1103.53 | 4.154
333.15 K, x1 = 0.4012 | 1126.61 | 5.808
333.15 K, x1 = 0.4973 | 1145.47 | 7.681
333.15 K, x1 = 0.596 | 1162.4 | 9.893
333.15 K, x1 = 0.6998 | 1177.67 | 12.51
333.15 K, x1 = 0.7961 | 1190.42 | 15.27
333.15 K, x1 = 0.8821 | 1200.75 | 18.36
333.15 K, x1 = 1 | 1212.86 | 24.09
